Source: patent US12303479B2, “Chloride intracellular channel 1 for regulation of food intake” (The Regents of the University of California, priority 2019, dated 2025)

Columns and labels:
[1] = target: T1, Clic1 (Mus musculus, UniProt Q9Z1Q5); assay: Chronic Clic1 inhibition in diet-induced obese high fat diet-fed mice, 7 days; type: in vivo, C57B16 WT mice; parameters: endogenous in cells; host or cells: whole live mice (C57B16 WT in the 7-day study); hypothalamus discussed as the site of action; details: IAA94 50 mg/kg IP daily
Protocol: Diet-induced obese mice (fed high fat diet for 6 weeks) were injected with IAA94 (50 mg/kg, IP, daily) or vehicle. Their daily food intake and body weight were monitored. Sacrifices were performed on day 7. […] On day 7 mice were fasted for 5 hours and then treated with IAA94 or VEH and then blood collected one hour later for measurement of leptin (FIG. 7C) GDF-15 (FIG. 7D) insulin (FIG. 7E), and glucose (FIG. 7F). FIGS. 7G-7J show hypothalamic neuropeptide levels determined by quantitative PCR detection. In FIGS. 7A-7B, P<0.05 repeated measures one-way ANOVA with Sidak's multiple comparisons test. In FIGS. 7C-7J, P<0.05 students t-test.

[2] = target: T1, Clic1; assay: Fasting and re-feeding model: food intake and hypothalamic neuropeptide expression after acute IAA94; type: in vivo, mice; parameters: endogenous in cells; host or cells: whole live mice (C57B16 WT in the 7-day study); hypothalamus discussed as the site of action
Protocol: To determine whether the modulation of Clic1 directly affected food intake, mice were treated with a specific Clic1 inhibitor, IAA94^11. Mice were fasted for 23 hours and then treated with either vehicle or IAA94 (50 mg/kg IP) and then re-fed for 1 hour. […] No changes in AgRP or Cart expression were detected.
FIGS. 1A-1C show the role of Clic1 in food intake.
FIGS. 5A-5C show acute studies in which Clic1 inhibition decreases food intake. HET/KO mice are viable, fertile and appear normal. Floxed mice are available at PMID: 20049953 Sydney. […] Male mice were injected with IAA94 (50 mg/kg) or vehicle and then refed. IAA94 (indanyloxyacetic acid 94) is a Clic1 inhibitor that blocks channels and has enzymatic properties.

[3] = target: T1, Clic1; assay: Chronic IAA94 treatment in diet-induced obese mice, 23 days, alone or with Lira; type: in vivo; parameters: endogenous in cells; host or cells: whole live mice (C57B16 WT in the 7-day study); hypothalamus discussed as the site of action; details: daily injections, FIG. 8A
Protocol: FIGS. 8A-8I show another study on chronic IAA94 treatment. Diet-induced obese mice (fed a high fat diet for 6 weeks) received daily injections of either i) vehicle, ii) IAA94—10 mg/kg, iii) IAA94—50 mg/kg, iv) Lira, or v) combination of Lira+IAA94 (50 mg/kg). Daily food intake and body weight were monitored. Sacrifices were performed after 23 days.

[4] = target: Clic1 (Homo sapiens, UniProt O00299); details: cited from earlier work
[5] = mice fasted 23 hours, IAA94 50 mg/kg IP, re-fed for 1 hour

Row | Structure (SMILES) | food intake ([1]; 7 days) | reduction of body weight ([1]; one week) [%] | hyperphagia in response to refeeding ([2]; IAA94 50 mg/kg, FIG. 1C) | food intake versus amount of IAA94 administered ([2]; male mice, fasting and re-feeding model, FIG. 5C) | AgRP expression (hypothalamic) [2, 5] | Cart expression (hypothalamic) [2, 5] | Pome expression (hypothalamic) [2, 5] | hypothalamic levels of Npy [2, 5] | reduction of food intake compared with vehicle treated mice [2, 5] [%] | weight loss on chronic treatment [3] | inhibition of Clic1 [4]
1 | C[C@]1(C2CCCC2)Cc2cc(OCC(=O)O)c(Cl)c(Cl)c2C1=O [IAA94, R(+)-[(6,7-Dichloro-2-cyclopentyl-2,3-dihydro-2-methyl-1-oxo-1H-inden-5-yl)-oxy]acetic acid] | significant reduction in food intake | ~12 | decreased hyperphagia | dose dependent | No changes | No changes | increased | significant reduction | ~50 | significant weight loss | –
2 | CN(C)C(=N)NC(=N)N [metformin, N,N-dimethylbiguanide] | – | – | – | – | – | – | – | – | – | – | inhibits Clic1
